In patent US8853274B1, “Compositions and methods for targeting glioblastomas cells” (Vanderbilt University, priority 2011, dated 2014):

Legend:
T4302 CD133+ cells = assay: Caspase 3/7 activation (apoptosis); format: cell-based, human; conditions: 100 nM, day 3
Method: (A) T4302 CD133+ GBM stem cells were enriched from freshly collected subcutaneous xenograft tumors, cultured in stem cell media. Cells were left unirradiated or irradiated at 3 Gy. The relative mRNA levels of Hes2 were determined by quantitative real-time PCR at the time points as indicated. (B) T4302 CD133+ cells were pre-treated with vehicle (DMSO), 2 μM DAPT or 0.5 μM L685,458 for 4 hours and irradiated as indicated. Cells were then plated to form neurospheres. Fourteen days after plating, neurospheres containing more than 50 cells were scored. To determine the surviving fractions, the number of neurosphere at each radiation dose was normalized to that of the corresponding sham-irradiated group. (C) T4302 CD133+ cells were treated with GSIs±radiation as indicated. Relative caspase 3/7 activities were determined by normalizing caspase activities to the corresponding cell numbers. (D), (E) T4302 CD133+ cells were infected with lentivirus directing expression of non-targeting shRNA or shRNAs specific to Notch1 or Notch2 (KD-Notch1 or KD-Notch2), and selected with puromycin. Relative caspase 3/7 activities and clonogenic survival were determined as described above. (F) T4302 CD133+ cells were infected with control lentivirus or lentivirus directing expression of NICD2. Clonogenic survival was determined as described above. *: p<0.05 by Student's t-test; #: p<0.01 by one-way ANOVA.
(A, B) T4302 CD133+ cells were treated with 100 nM RO4929097 (GSI) and/or 100 nM tipifarnib (FTI) for 4 hours prior to 3 Gy radiation. (A) Cell growth on day 5 and (B) caspase 3/7 activation on day 3 were determined as described in FIG. 4. #: p<0.001 by one-way ANOVA, combo vs. single agents. (C) The effects of GSIs and FTI against growth of T4302 CD133− cells were determined as described in panel A. (D, E) T4302 CD133+ cells were treated with GSI, FTI, or a 1:1 mixture at different concentrations (ranging from 3000 nM to ˜0.5 nM, 1:3 dilution)±3 Gy radiation. Cell viability was determined at 5 days after treatment in comparison to vehicle-treated groups. […] (F) T4302 CD 133+ cells were treated by GSI±FTI with a 2-fold dilution. Neurospheres were countered on day 10, and normalized to the vehicle-treated group.

cleaved Notch1 = assay: IHC staining for cleaved Notch1 in intracranial tumors; format: in vivo, Mice; conditions: oral 30 mg/kg/day, 7 days
Method: (A, B) T4302 CD133+ cells were treated with 100 nM GSI±FTI for 48 hours and lysed in RIPA buffer. Mice bearing intracranial T4302 tumors were orally treated with 30 mg/kg/day GSI once a day (q.d.)±100 mg/kg/day FTI twice a day (b.i.d.) for 7 days. Brains were resected and homogenized in RIPA buffer. All lysates were blotted with an antibody specific to prelamin A. (B) Additional brains were fixed and resected for IHC staining for cleaved Notch1. (C) T4302 CD133+ cells were infected with lentivirus expressing firefly luciferase and selected with puromycin for two days. Athymic nude mice were intracranially implanted with 5,000 cells, maintained for 10 days, and treated with GSI±FTI for 20 days as described above. In a separated experiment, animals were treated by the same protocol, except they were given 2 doses of 4 Gy X-ray irradiation on day 11 and day 12, 4 hours after drug administration. These mice were on drugs for 30 days. The median survival was calculated by the GraphPad Prism 5 software. (D) Animals in the unirradiated experiment were tracked for their tumor progression by bioluminescence imaging. The Y axis is set in a log scale. (E,F) The survival curves of these two experiments are shown.

CD133+ GBM stem cells = assay: Growth inhibition within 5 days, panel of glioblastoma xenograft samples; format: cell-based, human; conditions: 5-day period; in combination with 3 Gy radiation
Method: CD133+ cells were derived from multiple glioblastoma xenograft samples as indicated. The growth inhibitory effects by GSI and/or FTIs were determined as described in FIG. 5.
Therefore, effective killing of GBM stem cells may delay or even prevent tumor recurrence. […] In combination with radiation, GSIs or FTIs alone reduced cell numbers by ˜75%.

HIF1α and HIF2α = assay: Immunoblot of HIF1α/HIF2α under hypoxia in T4302 CD133+ cells; format: cell-based, human; conditions: 200 nM 24 h, then 2% O2 16 h
Method: (A) T4302 CD133+ cells were treated with 200 nM RO4929097 (GSI), and irradiated 4 hours later. Cells were cultured for two days and lysed for immunoblotting. (B) T4302 CD133+ cells were treated with 200 nM GSI or FTI±radiation. Cells were lysed 2 days after treatment. (C) T4302 CD133+ cells were treated with 200 nM GSI±FTI for 24 hours, and left under normoxia or in 2% O2 for 16 hours before being lysed for immunoblotting.

GBM43 = assay: Growth inhibition at day 5, spheroid GBM culture; format: cell-based, human; conditions: effects diminished after radiation
Method: (§1) (A) Known genetic features of selected GBM samples. WT: wild type; Amp: amplification; vIII: EGFRvIII; ND: not determined. (B) Spheroid GBM cultures were derived from freshly collected subcutaneous tumors and cultured for 2 weeks in stem cell media to enrich stem cell-like cancer cells. SF7225 was maintained as a primary spheroid culture. Growth inhibition at day 5 after treatment was determined as described in FIG. 5. *: p<0.01 by Student's t-test and growth inhibition ≧30% vs. the corresponding vehicle-treated groups. #: p<0.01 and >30% growth inhibition vs. the radiation only groups.
(§2) Work is now extended to a set of subcutaneous GBM xenografts (GBM) established by Dr. Jann Sarkaria and colleagues at Mayo Clinic. These samples are known to have mutational status of EGFR, p53 and PTEN and different radiosensitivity (FIG. 8A) (69-71). Because the cancer stem cell identity of CD133+ of the Mayo Clinic samples has not been validated by functional assays, the present inventor used the neurosphere culture that is widely utilized as a surrogate of GSCs for its ability to enrich GSC-like population (72, 73). Tumor response to GSI, FTI and/or radiation was determined as growth inhibition on day 5 after treatment, with a greater than 30% cell number reduction was defined as positive response mimicking the RECIST criteria (FIG. 8B). […] Therefore, the present inventor will continuously expand the GBM panel and determine the genomic features of all samples with focus on prevalent GBM-associated aberrations. On the basis of this molecularly characterized tumor panel, the present inventor will start to explore the potential biomarkers that may predict tumor response to the combination therapy of radiation, GSI and FTI by experiments described in herein.

GBM 44 = assay: Growth inhibition at day 5, spheroid GBM culture; format: cell-based, human
Method: as §1, §2

CC(C)(C(=O)NCC(F)(F)C(F)(F)F)C(=O)N[C@@H]1C(=O)Nc2ccccc2-c2ccccc21 [RO4929097]
caspase 3/7 activation, in words (T4302 CD133+ cells; absence of radiation): without apparent activation of apoptosis
increase of caspase 3/7 activity compared with the sham-treated group (T4302 CD133+ cells; following 3-Gy radiation): approximately 2 fold
levels of cleaved Notch1 in intracranial tumors (IHC) (cleaved Notch1): decreased the levels of cleaved Notch1
growth inhibition / reduction of cell numbers (CD133+ GBM stem cells): ~75%
HIF1α and HIF2α levels upon hypoxia stimulation (HIF1α and HIF2α): moderate reduction
tumor response (growth inhibition day 5), in words (GBM43): moderate response
growth inhibition on day 5 (GBM 44; 0 Gy): 48±3.2%
growth inhibition on day 5 (GBM 44; 3 Gy): 65±3.3%
